Experiments:
MOLT-4 = assay: Cellular MOLT-4 viability assay (CellTiter-Glo, 72 hours); type: cell-based; conditions: Homo sapiens, MOLT4 viability assay
Method: All cell lines were routinely tested for mycoplasma.
The effect of the CDK7 inhibitor to inhibit the growth of target cancer cells was evaluated through the 72 hours time period of viability assay. Briefly, the candidate cell line ware plated in 96 well plate at the following density of cells respectively. […] DMSO solvent without compound served as a control and final DMSO concentration less than 0.1%. After 72 hours of incubation at 37° C., 5% CO2 incubator, cells were analyzed for the viability using the CellTiter-Glo Luminescent Cell Viability Assay (Promega, Cat #G7570). All viability assays were performed in duplicate and Luminescence was read using an Envision (Perkin Elmer, USA). Data was analyzed using XLfit software.

CDK1/Cyclin B = biological target: T1, CDK1/Cyclin B (Homo sapiens, UniProt P06493); assay: Enzymatic assay for CDK1 (FRET based LANCE Ultra kinase assay); type: biochemical; conditions: read-out: CDK1 enzymatic activity (IC50 range)
T1 construct: purchased Invitrogen PR4768C
Outline: (§1)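 TR-FRET (LANCE Ultra) kinase assay at ATP Km, ULight-MBP peptide substrate (68 nM), 8-dose 4-fold compound series in DMSO. Enzymes: […]; 60 min at 23° C., stopped with EDTA plus Eu-anti-phospho-MBP antibody, read 665/615 nm after 60 min.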

CDK2/Cyclin A = biological target: T2, CDK2/Cyclin A (Homo sapiens, UniProt P24941); assay: Enzymatic assay for CDK2 (FRET based LANCE Ultra kinase assay); type: biochemical; conditions: read-out: CDK2 enzymatic activity (IC50 range)
T2 construct: purchased Invitrogen PV6290
Outline: as §1

CDK5/p25 = biological target: T3, CDK5/p25 (Homo sapiens, UniProt Q00535); assay: Enzymatic assay for CDK5 (FRET based LANCE Ultra kinase assay); type: biochemical; conditions: read-out: CDK5 enzymatic activity (IC50 range)
T3 construct: purchased Invitrogen PR8543B
Outline: as §1

CDK7/Cyclin H/MNAT1 = biological target: T4, CDK7/Cyclin H/MNAT1 (Homo sapiens, UniProt P50613); assay: Enzymatic assay for CDK7 (FRET based LANCE Ultra kinase assay); type: biochemical; conditions: for IC50: read-out: CDK7 enzymatic activity (IC50 range)
T4 construct: purchased Invitrogen PR6749B
Outline: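 Inhibition was measured at Km ATP by time-resolved FRET between a Eu anti-phospho antibody and a phosphorylated ULight peptide. The enzyme was the purified CDK7/cyclin complex, and data were curve-fitted.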

HCT116 = assay: Cellular HCT116 viability assay (CellTiter-Glo, 72 hours); type: cell-based; conditions: Homo sapiens, HCT-116
Outline: (§2)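 Luminescent ATP read-out (CellTiter-Glo) after 72 h compound exposure at 37 °C/5% CO2; duplicate wells; vehicle control DMSO <0.1% final; seeding density set per cell line.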

H460 = assay: Cellular H460 viability assay (CellTiter-Glo, 72 hours); type: cell-based; conditions: Homo sapiens, NCI-H460
Outline: as §2

MV4-11 = assay: Cellular MV4-11 viability assay (CellTiter-Glo, 72 hours); type: cell-based; conditions: Homo sapiens
Outline: as §2

T1 sequence (P06493 whole entry): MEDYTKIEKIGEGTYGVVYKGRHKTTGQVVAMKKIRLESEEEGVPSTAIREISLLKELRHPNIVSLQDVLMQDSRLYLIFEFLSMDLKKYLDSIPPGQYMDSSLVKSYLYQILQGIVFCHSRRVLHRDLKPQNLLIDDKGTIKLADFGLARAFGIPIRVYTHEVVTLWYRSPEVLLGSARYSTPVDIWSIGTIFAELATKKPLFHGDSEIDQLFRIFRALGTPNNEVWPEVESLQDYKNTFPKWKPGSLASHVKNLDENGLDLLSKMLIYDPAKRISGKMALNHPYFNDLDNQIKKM
T1 sequence (P14635 whole entry partner): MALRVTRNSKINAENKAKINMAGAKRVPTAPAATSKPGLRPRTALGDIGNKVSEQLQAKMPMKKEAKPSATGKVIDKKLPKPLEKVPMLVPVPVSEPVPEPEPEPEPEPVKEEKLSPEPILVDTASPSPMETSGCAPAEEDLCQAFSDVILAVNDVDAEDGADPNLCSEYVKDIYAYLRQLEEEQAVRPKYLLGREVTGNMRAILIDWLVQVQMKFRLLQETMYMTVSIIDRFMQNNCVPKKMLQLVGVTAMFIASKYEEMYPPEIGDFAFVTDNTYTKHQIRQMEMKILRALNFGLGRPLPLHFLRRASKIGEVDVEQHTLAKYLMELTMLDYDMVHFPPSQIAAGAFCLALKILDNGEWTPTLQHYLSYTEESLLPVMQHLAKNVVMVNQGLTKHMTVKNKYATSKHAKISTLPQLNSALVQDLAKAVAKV
T3 sequence (Q00535 whole entry): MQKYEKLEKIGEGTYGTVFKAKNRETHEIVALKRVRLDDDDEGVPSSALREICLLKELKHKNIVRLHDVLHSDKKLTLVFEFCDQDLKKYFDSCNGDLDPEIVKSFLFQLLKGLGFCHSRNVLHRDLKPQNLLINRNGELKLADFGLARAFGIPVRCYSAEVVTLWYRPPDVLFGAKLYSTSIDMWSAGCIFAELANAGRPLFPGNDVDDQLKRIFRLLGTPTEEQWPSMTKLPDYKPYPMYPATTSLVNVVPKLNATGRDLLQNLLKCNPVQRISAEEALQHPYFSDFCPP
T3 sequence (Q15078 99-307 partner limits assumed): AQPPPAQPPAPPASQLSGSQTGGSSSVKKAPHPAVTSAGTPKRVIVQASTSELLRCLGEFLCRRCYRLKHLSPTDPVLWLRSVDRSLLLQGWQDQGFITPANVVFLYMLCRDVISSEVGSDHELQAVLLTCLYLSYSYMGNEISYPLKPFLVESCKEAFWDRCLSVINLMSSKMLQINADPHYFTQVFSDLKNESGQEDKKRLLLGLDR
T4 sequence (P50613 whole entry): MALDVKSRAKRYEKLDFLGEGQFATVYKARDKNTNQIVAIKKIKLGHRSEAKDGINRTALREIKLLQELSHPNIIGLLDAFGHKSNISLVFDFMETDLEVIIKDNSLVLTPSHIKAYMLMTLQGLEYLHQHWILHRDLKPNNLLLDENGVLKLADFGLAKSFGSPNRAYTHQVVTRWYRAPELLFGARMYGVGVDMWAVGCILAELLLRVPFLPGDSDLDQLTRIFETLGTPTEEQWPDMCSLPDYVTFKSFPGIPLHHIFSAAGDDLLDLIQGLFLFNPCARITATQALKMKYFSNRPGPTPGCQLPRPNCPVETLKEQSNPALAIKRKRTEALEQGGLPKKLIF
T4 sequence (P51946 whole entry partner): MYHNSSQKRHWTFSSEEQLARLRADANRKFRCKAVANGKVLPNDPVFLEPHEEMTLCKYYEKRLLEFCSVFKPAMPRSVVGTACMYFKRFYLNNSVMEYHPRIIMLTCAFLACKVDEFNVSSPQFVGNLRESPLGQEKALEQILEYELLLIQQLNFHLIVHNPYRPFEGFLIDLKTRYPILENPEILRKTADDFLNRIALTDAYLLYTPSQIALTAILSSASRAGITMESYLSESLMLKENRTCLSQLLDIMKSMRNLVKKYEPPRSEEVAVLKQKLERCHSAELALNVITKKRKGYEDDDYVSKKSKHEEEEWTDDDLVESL
T4 sequence (P51948 whole entry partner): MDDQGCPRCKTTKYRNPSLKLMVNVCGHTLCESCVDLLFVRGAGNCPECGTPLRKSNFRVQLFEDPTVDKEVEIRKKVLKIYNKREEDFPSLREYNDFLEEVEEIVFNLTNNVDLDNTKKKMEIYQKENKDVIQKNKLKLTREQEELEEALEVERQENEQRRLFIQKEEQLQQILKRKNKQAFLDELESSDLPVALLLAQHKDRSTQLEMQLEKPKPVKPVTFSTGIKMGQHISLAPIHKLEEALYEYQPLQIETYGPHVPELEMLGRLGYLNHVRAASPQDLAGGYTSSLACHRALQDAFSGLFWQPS

SMILES	IC50 (MOLT-4) [µM]	IC50 (CDK1/Cyclin B) [nM]	IC50 (CDK2/Cyclin A) [nM]	IC50 (CDK5/p25) [nM]	CDK1/CDK7: Selectivity of CDK7 inhibition over CDK1 inhibition (CDK7/Cyclin H/MNAT1)	CDK2/CDK7: Selectivity of CDK7 inhibition over CDK2 inhibition (CDK7/Cyclin H/MNAT1)	CDK5/CDK7: Selectivity of CDK7 inhibition over CDK5 inhibition (CDK7/Cyclin H/MNAT1)	IC50 (CDK7/Cyclin H/MNAT1) [nM]	IC50 (HCT116) [nM]	IC50 (H460) [nM]	IC50 (MV4-11) [nM]
NC1CCN(c2nc(NCc3ccccc3-n3cccn3)n3ncc(F)c3n2)CC1 [Compound 37]	> 10										
CC(C)c1cnn2c(NCc3cccc(Oc4ccc(F)c(NC(=O)CCCN(C)C)c4)c3)nc(N3CCC(N)CC3)nc12 [Compound 93]	1 to 10	> 1000	100 to 1000	100 to 1000	A (A=greater than 200 fold)	B (B=less than 200 fold, but greater than 20 fold)	B (B=less than 200 fold, but greater than 20 fold)	< 100			
CC(C)c1cnn2c(NCc3cccc(N4CCN(C(=O)CCCN(C)C)CC4)c3)nc(N3CCC(N)CC3)nc12 [Compound 85]	> 10										
CC(C)c1cnn2c(NCc3ccccc3-n3cccn3)nc(Oc3ccc(N4CCCC4)cc3)nc12 [Compound 162]	> 10										
CC(C)c1cnn2c(NCc3ccccc3Oc3cccc(NC(=O)CCCN(C)C)c3)nc(N3CCC(N)CC3)nc12 [Compound 82]	1 to 10										
CC(C)c1cnn2c(NCc3ccccc3-n3ccc(C(C)(C)O)n3)nc(OCC3CCNCC3)nc12 [Compound 227]		> 1000	> 1000	> 1000	A (A=greater than 200 fold)	A (A=greater than 200 fold)	A (A=greater than 200 fold)	< 100	< 1000	< 1000	1000 to 10000
CC(C)c1cnn2c(NCc3ccccc3-c3ccc4ccccc4n3)nc(NCC3CCNCC3)nc12 [Compound 209]		> 1000	> 1000	> 1000	A (A=greater than 200 fold)	A (A=greater than 200 fold)	A (A=greater than 200 fold)	< 100	< 1000	< 1000	< 1000
CC(C)c1cnn2c(NCc3ccccc3-c3ccc4ccccc4n3)nc(N3CCC(CN)CC3)nc12 [Compound 216]		> 1000	> 1000	> 1000	A (A=greater than 200 fold)	A (A=greater than 200 fold)	A (A=greater than 200 fold)	< 100	< 1000	< 1000	< 1000
CC(C)c1cnn2c(NCc3c(Cl)cccc3-n3ccc(C(=O)NC4COC4)n3)nc(N3CCC(N)CC3)nc12 [Compound 205]		> 1000	> 1000	100 to 1000	A (A=greater than 200 fold)	A (A=greater than 200 fold)	B (B=less than 200 fold, but greater than 20 fold)	< 100	< 1000	< 1000	< 1000
CC(C)c1cnn2c(NCc3ccccc3-c3ccc4ccccc4n3)nc(NCC(O)CCN)nc12 (racemic) [Compound 240]		> 1000	> 1000	> 1000	A (A=greater than 200 fold)	A (A=greater than 200 fold)	A (A=greater than 200 fold)	< 100	< 1000	< 1000	< 1000
CC(C)c1cnn2c(NCc3cccc(Oc4cccc(NC(=O)CCCN(C)C)c4)c3)nc(N3CCC(N)CC3)nc12 [Compound 84]	1 to 10										
CC(C)C(=O)N1CCc2nn(-c3ccccc3CNc3nc(N4CCC(N)CC4)nc4c(C(C)C)cnn34)cc2C1 [Compound 148]		> 1000	100 to 1000	< 100	A (A=greater than 200 fold)	A (A=greater than 200 fold)	B (B=less than 200 fold, but greater than 20 fold)	< 100	< 1000	< 1000	< 1000
CC(C)c1cnn2c(NCc3c(Cl)cccc3-n3ccc(N4CCOCC4)n3)nc(N3CCC(N)CC3)nc12 [Compound 202]		> 1000	> 1000	> 1000	A (A=greater than 200 fold)	A (A=greater than 200 fold)	A (A=greater than 200 fold)	< 100	< 1000	< 1000	< 1000
Cc1cccc(-n2ccc(C(C)(C)O)n2)c1CNc1nc(NCC2CCNCC2)nc2c(C(C)C)cnn12 [Compound 232]		> 1000	> 1000	> 1000	A (A=greater than 200 fold)	A (A=greater than 200 fold)	A (A=greater than 200 fold)	< 100	1000 to 10000	1000 to 10000	1000 to 10000
Cc1cccc(-c2cc(CO)nn2C)c1CNc1nc(N2CCC(N)CC2)nc2c(C(C)C)cnn12 [Compound 214]		> 1000	> 1000	> 1000	A (A=greater than 200 fold)	A (A=greater than 200 fold)	A (A=greater than 200 fold)	< 100	< 1000	< 1000	< 1000
CC(C)c1cnn2c(NCc3ccccc3-c3ccc4ccccc4n3)nc(OCC3CCNCC3O)nc12 (stereo not drawn) [Compound 218]		> 1000	> 1000	> 1000	A (A=greater than 200 fold)	A (A=greater than 200 fold)	A (A=greater than 200 fold)	< 100	< 1000	< 1000	< 1000
CC(C)c1cnn2c(NCc3c(Cl)cccc3-n3ccc(C(=O)NC4CCOCC4)n3)nc(N3CCC(N)CC3)nc12 [Compound 201]		> 1000	> 1000	100 to 1000	A (A=greater than 200 fold)	A (A=greater than 200 fold)	B (B=less than 200 fold, but greater than 20 fold)	< 100	< 1000	< 1000	< 1000
